We go through 19 compounds from patent publication US20250092064A1, “BENZOTRIAZOLE COMPOUND” (DAIICHI SANKYO COMPANY, LIMITED, priority 2022, published 2025).

For assay [1], the target named is binding between Nrf2 and Keap1 (Homo sapiens (Human), UniProt Q14145). Briefly: FP assay (in vitro): inhibition of Nrf2-Keap1 binding by fluorescence polarization. The note with it: GST-fused human Keap1 (325-642) 20 nM, FITC-labeled Nrf2 peptide 10 nM, 2 hr at room temperature. A general note: Fluorescence polarisation rises when a labelled molecule tumbles more slowly, as on binding a larger partner.
Sequence of binding between Nrf2 and Keap1 (Q14145 325-624 limits assumed): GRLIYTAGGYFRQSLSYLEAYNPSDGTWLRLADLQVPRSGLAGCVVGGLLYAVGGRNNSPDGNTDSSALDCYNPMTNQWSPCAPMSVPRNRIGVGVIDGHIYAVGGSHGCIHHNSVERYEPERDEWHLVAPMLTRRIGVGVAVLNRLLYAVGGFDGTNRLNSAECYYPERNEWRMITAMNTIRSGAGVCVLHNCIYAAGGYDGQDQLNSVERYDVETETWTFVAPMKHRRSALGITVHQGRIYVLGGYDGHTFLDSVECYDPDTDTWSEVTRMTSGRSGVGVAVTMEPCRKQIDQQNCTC

Assay [2] concerns NQO1 activity in Hepa1c1c7 cells. The assay is described as follows: NAD(P)H: quinone oxidoreductase-1 (NQO1) enzyme induction assay (in vitro). The note with it: Mus musculus, Hepa-1c1c7, NQO1 activity with 400 nM test compound as a ratio from the base without compound, about 48 hr. Type of assay: cell-based, mouse. The procedure, abridged: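 Mouse Hepa1c1c7 hepatoma cells treated 48 hr with 400 nM compound (final). NQO1 activity in lysates read by absorbance at 610 nm; value is background-subtracted activity ratio versus untreated cells.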

Broadly, the IC50 is the midpoint of a concentration-inhibition curve. A low value points to greater potency in that assay. In general, fold induction refers to the signal under treatment as a multiple of the control signal. The compound `CCOc1ccc2c(n1)O[C@H](CC)CN(Cc1cc(C(CC(=O)O)c3ccc4c(nnn4C)c3C)cc3c1CCC3)S2(=O)=O` (stereo partly drawn) [Example 9, 3-(1,4-Dimethyl-1H-benzotriazol-5-yl)-3-(7-{[(4R)-7-ethoxy-4-ethyl-1,1-dioxido-3,4-dihydro-2H-pyrido[2,3-b][1,4,5]oxathiazepin-2-yl]methyl}-2,3-dihydro-1H-inden-5-yl)propanoic acid] returned an IC50 in assay [1] of 0.01 to 0.03 µM. In assay [2], the fold induction at 0.4 µM was more than 5.
For `CC[C@@H]1CN(Cc2cc(C(CC(=O)O)c3ccc4c(nnn4C)c3Cl)cc3ccoc23)S(=O)(=O)c2cc(Cl)cnc2O1` (stereo partly drawn) [Example 92, 3-(7-{[(4R)-8-Chloro-4-ethyl-1,1-dioxido-3,4-dihydro-2H-pyrido[2,3-b][1,4,5]oxathiazepin-2-yl]methyl}-1-benzofuran-5-yl)-3-(4-chloro-1-methyl-1H-benzotriazol-5-yl)propanoic acid] the same measures were 0.01 to 0.03 µM and more than 5.
In assay [1], `CC[C@@H]1CN(Cc2cc(C(CC(=O)O)c3ccc4c(nnn4C)c3C)cc3c2CCC3)S(=O)(=O)c2cccc(Cl)c2O1` (stereo partly drawn) [Example 16, 3-(7-{[(4R)-6-Chloro-4-ethyl-1,1-dioxido-3,4-dihydro-2H-5,1,2-benzoxathiazepin-2-yl]methyl}-2,3-dihydro-1H-inden-5-yl)-3-(1,4-dimethyl-1H-benzotriazol-5-yl)propanoic acid] registered an IC50 not above 0.01 µM. The fold induction at 0.4 µM in assay [2] was more than 5.
The compound `CC[C@@H]1CN(Cc2cc([C@H](CC(=O)O)c3cc(Cl)c4c(nnn4C)c3C)cc3c2CCC3)S(=O)(=O)c2cc(Cl)cnc2O1` [Example 96, (3S)-3-(7-Chloro-1,4-dimethyl-1H-benzotriazol-5-yl)-3-(7-{[(4R)-8-chloro-4-ethyl-1,1-dioxido-3,4-dihydro-2H-pyrido[2,3-b][1,4,5]oxathiazepin-2-yl]methyl}-2,3-dihydro-1H-inden-5-yl)propanoic acid] came in with an IC50 in assay [1] not above 0.01 µM. Further, the fold induction at 0.4 µM in assay [2] was more than 5.
For `CC[C@@H]1CN(Cc2cc([C@@H](CC(=O)O)c3ccc4c(nnn4C)c3C)cc3ccsc23)S(=O)(=O)c2cc(Cl)c(F)cc2O1` [Example 22, (3R)-3-(7-{[(4R)-8-Chloro-4-ethyl-7-fluoro-1,1-dioxido-3,4-dihydro-2H-5,1,2-benzoxathiazepin-2-yl]methyl}-1-benzothiophen-5-yl)-3-(1,4-dimethyl-1H-benzotriazol-5-yl)propanoic acid] the same measures were not above 0.01 µM and more than 5.
For `CC[C@@H]1CN(Cc2cc(C(CC(=O)O)c3ccc4c(nnn4C)c3C)cc3c2CCC3)S(=O)(=O)c2cc(C(F)(F)F)cnc2O1` (stereo partly drawn) [Example 25, 3-(1,4-Dimethyl-1H-benzotriazol-5-yl)-3-(7-{[(4R)-4-ethyl-1,1-dioxido-8-(trifluoromethyl)-3,4-dihydro-2H-pyrido[2,3-b][1,4,5]oxathiazepin-2-yl]methyl}-2,3-dihydro-1H-inden-5-yl)propanoic acid] the same measures were 0.01 to 0.03 µM and more than 5.
Compound `Cc1c([C@H](CC(=O)O)c2cc(CN3CC4(CC4)Oc4ccc(O)nc4[C@H]3C)c3sccc3c2)ccc2c1nnn2C` (single isomer, unassigned) [Example 88, (3R)-3-(1,4-Dimethyl-1H-benzotriazol-5-yl)-3-(7-{[(5′R*)-7′-hydroxy-5′-methyl-3′H-spiro[cyclopropane-1,2′-pyrido[2,3-f][1,4]oxazepin]-4′(5′H)-yl]methyl}-1-benzothiophen-5-yl)propanoic acid] had an IC50 in assay [1] of 0.01 to 0.03 µM. For the same compound, the fold induction at 0.4 µM in assay [2] was more than 5.
Take `CC[C@@H]1Cc2ncccc2S(=O)(=O)N(Cc2cc([C@@H](CC(=O)O)c3ccc4c(nnn4C)c3C)cc3c2CCC3)C1` (single isomer, unassigned) [Example 27, (3R)-3-(1,4-Dimethyl-1H-benzotriazol-5-yl)-3-(7-{[(4S*)-4-ethyl-1,1-dioxido-4,5-dihydropyrido[2,3-f][1,2]thiazepin-2(3H)-yl]methyl}-2,3-dihydro-1H-inden-5-yl)propanoic acid]: the IC50 in assay [1] was not above 0.01 µM. Further, the fold induction at 0.4 µM in assay [2] was more than 5.
For `CC[C@@H]1CN(Cc2cc([C@@H](CC(=O)O)c3cc(O)c4c(nnn4C)c3C)cc3ccsc23)[C@@H](C)c2ncccc2O1` (single isomer, unassigned) [Example 94, (3R*)-3-(7-{[(2R,5S)-2-Ethyl-5-methyl-2,3-dihydropyrido[2,3-f][1,4]oxazepin-4(5H)-yl]methyl}-1-benzothiophen-5-yl)-3-(7-hydroxy-1,4-dimethyl-1H-benzotriazol-5-yl)propanoic acid] the same measures were not above 0.01 µM and more than 5.
For `CC[C@@H]1CN(Cc2cc([C@@H](CC(=O)O)c3ccc4c(nnn4C)c3C)cc3c2CCC3)S(=O)(=O)c2cccc(Cl)c2O1` [Example 48, (3R)-3-(7-{[(4R)-6-Chloro-4-ethyl-1,1-dioxido-3,4-dihydro-2H-5,1,2-benzoxathiazepin-2-yl]methyl}-2,3-dihydro-1H-inden-5-yl)-3-(1,4-dimethyl-1H-benzotriazol-5-yl)propanoic acid], in assay [1], the IC50 is not above 0.01 µM. Moreover, the fold induction at 0.4 µM in assay [2] is more than 5.
Compound `CC[C@@H]1CN(Cc2cc(C(CC(=O)O)c3ccc4c(nnn4CCCS(C)(=O)=O)c3C)cc3ccsc23)S(=O)(=O)c2cc(Cl)cnc2O1` (stereo partly drawn) [Example 57, 3-(7-{[(4R)-8-Chloro-4-ethyl-1,1-dioxido-3,4-dihydro-2H-pyrido[2,3-b][1,4,5]oxathiazepin-2-yl]methyl}-1-benzothiophen-5-yl)-3-{4-methyl-1-[3-(methylsulfonyl)propyl]-1H-benzotriazol-5-yl}propanoic acid] yielded an IC50 in assay [1] of 0.01 to 0.03 µM. For the same compound, the fold induction at 0.4 µM in assay [2] is more than 5.
For `CC[C@@H]1CN(Cc2cc(C(CC(=O)O)c3cc(Cl)c4c(nnn4C)c3C)cc3ccsc23)S(=O)(=O)c2cc(Cl)cnc2O1` (stereo partly drawn) [Example 51, 3-(7-Chloro-1,4-dimethyl-1H-benzotriazol-5-yl)-3-(7-{[(4R)-8-chloro-4-ethyl-1,1-dioxido-3,4-dihydro-2H-pyrido[2,3-b][1,4,5]oxathiazepin-2-yl]methyl}-1-benzothiophen-5-yl)propanoic acid] the same measures were 0.01 to 0.03 µM and 3 to 5.
In assay [1], `CC[C@@H]1CN(Cc2cc(C(CC(=O)O)c3ccc4c(nnn4C)c3C)cc3c2CCC3)S(=O)(=O)c2ccc(C)nc2O1` (stereo partly drawn) [Example 11, 3-(1,4-Dimethyl-1H-benzotriazol-5-yl)-3-(7-{[(4R)-4-ethyl-7-methyl-1,1-dioxido-3,4-dihydro-2H-pyrido[2,3-b][1,4,5]oxathiazepin-2-yl]methyl}-2,3-dihydro-1H-inden-5-yl)propanoic acid] came in with a concentration for half-maximal inhibition (IC50) of 0.01 to 0.03 µM. For the same compound, the fold induction at 0.4 µM in assay [2] was more than 5.
For `CC[C@@H]1CN(Cc2cc([C@@H](CC(=O)O)c3cc(Cl)c4c(nnn4C)c3C)cc3c2CCC3)S(=O)(=O)c2cc(Cl)cnc2O1` [Example 97, (3R)-3-(7-Chloro-1,4-dimethyl-1H-benzotriazol-5-yl)-3-(7-{[(4R)-8-chloro-4-ethyl-1,1-dioxido-3,4-dihydro-2H-pyrido[2,3-b][1,4,5]oxathiazepin-2-yl]methyl}-2,3-dihydro-1H-inden-5-yl)propanoic acid], the IC50 in assay [1] was not above 0.01 µM. In addition, the fold induction at 0.4 µM in assay [2] is more than 5.
For `CC[C@@H]1CN(Cc2cc(C(CC(=O)O)c3cc(OC)c4c(nnn4C)c3C)cc3ccsc23)S(=O)(=O)c2cc(Cl)cnc2O1` (stereo partly drawn) [Example 50, 3-(7-{[(4R)-8-Chloro-4-ethyl-1,1-dioxido-3,4-dihydro-2H-pyrido[2,3-b][1,4,5]oxathiazepin-2-yl]methyl}-1-benzothiophen-5-yl)-3-(7-methoxy-1,4-dimethyl-1H-benzotriazol-5-yl)propanoic acid] the same measures were 0.01 to 0.03 µM and more than 5.
For `CC[C@@H]1CN(Cc2cc([C@H](CC(=O)O)c3cc(C4CC4)c4c(nnn4C)c3C)cc3c2CCC3)S(=O)(=O)c2cc(Cl)cnc2O1` [Example 40, (3S)-3-(7-{[(4R)-8-Chloro-4-ethyl-1,1-dioxido-3,4-dihydro-2H-pyrido[2,3-b][1,4,5]oxathiazepin-2-yl]methyl}-2,3-dihydro-1H-inden-5-yl)-3-(7-cyclopropyl-1,4-dimethyl-1H-benzotriazol-5-yl)propanoic acid] the same measures were 0.01 to 0.03 µM and 3 to 5.
For `CC[C@@H]1CN(Cc2cc(C(CC(=O)O)c3ccc4c(nnn4C)c3Cl)cc3c2CCC3)S(=O)(=O)c2cc(Cl)cnc2O1` (stereo partly drawn) [Example 29, 3-(7-{[(4R)-8-Chloro-4-ethyl-1,1-dioxido-3,4-dihydro-2H-pyrido[2,3-b][1,4,5]oxathiazepin-2-yl]methyl}-2,3-dihydro-1H-inden-5-yl)-3-(4-chloro-1-methyl-1H-benzotriazol-5-yl)propanoic acid] the same measures were not above 0.01 µM and more than 5.
`CC[C@@H]1CN(Cc2cc(C(CC(=O)O)c3ccc4c(nnn4C)c3C)cc3c2CCC3)S(=O)(=O)c2cc(Cl)ccc2O1` (stereo partly drawn) [Example 14, 3-(7-{[(4R)-8-Chloro-4-ethyl-1,1-dioxido-3,4-dihydro-2H-5,1,2-benzoxathiazepin-2-yl]methyl}-2,3-dihydro-1H-inden-5-yl)-3-(1,4-dimethyl-1H-benzotriazol-5-yl)propanoic acid] came in with an IC50 in assay [1] of 0.01 to 0.03 µM. For the same compound, the fold induction at 0.4 µM in assay [2] is more than 5.
For `CC[C@@H]1CN(Cc2cc([C@H](CC(=O)O)c3ccc4c(nnn4C)c3C)cc3c2CCC3)[C@@H](C)c2ncccc2O1` [Example 66, (3S)-3-(1,4-Dimethyl-1H-benzotriazol-5-yl)-3-(7-{[(2R,5S)-2-ethyl-5-methyl-2,3-dihydropyrido[2,3-f][1,4]oxazepin-4(5H)-yl]methyl}-2,3-dihydro-1H-inden-5-yl)propanoic acid], in that order: 0.01 to 0.03 µM and more than 5.
